Assay results taken from the supplement of paper PMC10307832.

How the values were obtained:
Assay in all cases: relative viability (nuclei count vs DMSO), 5 days (fraction); higher = more cells survive
[1] = test system: NCI-H358
Summary of the method: (§1)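 Lung cancer cell lines, seeded in 1536-well plates, were treated the following day by pin tool with a single drug or with five library-drug doses (not always all listed) in √10 steps on top of a fixed anchor-drug dose. Cells were fixed and nuclei stained in one step after 5 days, and nuclei were counted. Relative viability is the nuclei count for treated wells divided by that for vehicle wells, reported as medians of duplicate plates.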

[2] = test system: NCI-H2085
Summary of the method: as §1

[3] = test system: NCI-H650
Summary of the method: as §1

[4] = test system: COR-L23
Summary of the method: as §1

[5] = test system: NCI-H1993
Summary of the method: as §1

[6] = test system: NCI-H1915
Summary of the method: as §1

[7] = test system: NCI-H2347
Summary of the method: as §1

[8] = test system: EPLC-272H
Summary of the method: as §1

[9] = test system: SW 1573
Summary of the method: as §1

[10] = test system: PC-14
Summary of the method: as §1

[11] = test system: NCI-H1651
Summary of the method: as §1

[12] = test system: NCI-H2126
Summary of the method: as §1

[13] = test system: LU99A
Summary of the method: as §1

[14] = test system: NCI-H838
Summary of the method: as §1

[15] = test system: HCC-44
Summary of the method: as §1

[16] = test system: HARA
Summary of the method: as §1

[17] = test system: HOP-62
Summary of the method: as §1

[18] = test system: NCI-H2023
Summary of the method: as §1

[19] = test system: LC-2-ad
Summary of the method: as §1

[20] = test system: UMC-11
Summary of the method: as §1

[21] = test system: NCI-H1355
Summary of the method: as §1

[22] = test system: HCC-15
Summary of the method: as §1

O=c1cc(-c2cccc3c2Sc2ccccc2S3)oc(N2CCOCC2)c1 + Nc1nc2[nH]cc(CCc3ccc(C(=O)N[C@@H](CCC(=O)O)C(=O)O)cc3)c2c(=O)[nH]1 [Pemetrexed] (partner 0.2 µM)
relative viability ([1]; first compound 0.08 µM): 0.161 | relative viability ([1]; first compound 0.253 µM): 0.188 | relative viability ([1]; first compound 0.8 µM): 0.183 | relative viability ([1]; first compound 2.53 µM): 0.176 | relative viability ([1]; first compound 8 µM): 0.175 | relative viability ([2]; first compound 0.08 µM): 0.828 | relative viability ([2]; first compound 0.253 µM): 0.962 | relative viability ([2]; first compound 0.8 µM): 0.934 | relative viability ([2]; first compound 2.53 µM): 0.757 | relative viability ([2]; first compound 8 µM): 0.773 | relative viability ([3]; first compound 0.08 µM): 0.917 | relative viability ([3]; first compound 0.253 µM): 0.964 | relative viability ([3]; first compound 0.8 µM): 0.878 | relative viability ([3]; first compound 2.53 µM): 0.74 | relative viability ([3]; first compound 8 µM): 0.866 | relative viability ([4]; first compound 0.08 µM): 0.194 | relative viability ([4]; first compound 0.253 µM): 0.215 | relative viability ([4]; first compound 0.8 µM): 0.215 | relative viability ([4]; first compound 2.53 µM): 0.195 | relative viability ([4]; first compound 8 µM): 0.197 | relative viability ([5]; first compound 0.08 µM): 0.588 | relative viability ([5]; first compound 0.253 µM): 0.702 | relative viability ([5]; first compound 0.8 µM): 0.567 | relative viability ([5]; first compound 2.53 µM): 0.497 | relative viability ([5]; first compound 8 µM): 0.613 | relative viability ([6]; first compound 0.08 µM): 0.507 | relative viability ([6]; first compound 0.253 µM): 0.442 | relative viability ([6]; first compound 0.8 µM): 0.552 | relative viability ([6]; first compound 2.53 µM): 0.52 | relative viability ([6]; first compound 8 µM): 0.405 | relative viability ([7]; first compound 0.08 µM): 0.386 | relative viability ([7]; first compound 0.253 µM): 0.458 | relative viability ([7]; first compound 0.8 µM): 0.465 | relative viability ([7]; first compound 2.53 µM): 0.424 | relative viability ([7]; first compound 8 µM): 0.435 | relative viability ([8]; first compound 0.08 µM): 0.296 | relative viability ([8]; first compound 0.253 µM): 0.224 | relative viability ([8]; first compound 0.8 µM): 0.333 | relative viability ([8]; first compound 2.53 µM): 0.304 | relative viability ([8]; first compound 8 µM): 0.197 | relative viability ([9]; first compound 0.08 µM): 0.754 | relative viability ([9]; first compound 0.253 µM): 1.11 | relative viability ([9]; first compound 0.8 µM): 0.865 | relative viability ([9]; first compound 2.53 µM): 0.838 | relative viability ([9]; first compound 8 µM): 0.924 | relative viability ([10]; first compound 0.08 µM): 0.138 | relative viability ([10]; first compound 0.253 µM): 0.135 | relative viability ([10]; first compound 0.8 µM): 0.132 | relative viability ([10]; first compound 2.53 µM): 0.119 | relative viability ([10]; first compound 8 µM): 0.12 | relative viability ([11]; first compound 0.08 µM): 0.563 | relative viability ([11]; first compound 0.253 µM): 0.636 | relative viability ([11]; first compound 0.8 µM): 0.604 | relative viability ([11]; first compound 2.53 µM): 0.589 | relative viability ([11]; first compound 8 µM): 0.603 | relative viability ([12]; first compound 0.08 µM): 0.682 | relative viability ([12]; first compound 0.253 µM): 0.785 | relative viability ([12]; first compound 0.8 µM): 0.71 | relative viability ([12]; first compound 2.53 µM): 0.695 | relative viability ([12]; first compound 8 µM): 0.645 | relative viability ([13]; first compound 0.08 µM): 0.201 | relative viability ([13]; first compound 0.253 µM): 0.169 | relative viability ([13]; first compound 0.8 µM): 0.184 | relative viability ([13]; first compound 2.53 µM): 0.324 | relative viability ([13]; first compound 8 µM): 0.187 | relative viability ([14]; first compound 0.08 µM): 0.266 | relative viability ([14]; first compound 0.253 µM): 0.245 | relative viability ([14]; first compound 0.8 µM): 0.249 | relative viability ([14]; first compound 2.53 µM): 0.226 | relative viability ([14]; first compound 8 µM): 0.226 | relative viability ([15]; first compound 0.08 µM): 0.63 | relative viability ([15]; first compound 0.253 µM): 0.641 | relative viability ([15]; first compound 0.8 µM): 0.607 | relative viability ([15]; first compound 2.53 µM): 0.67 | relative viability ([15]; first compound 8 µM): 0.676 | relative viability ([16]; first compound 0.08 µM): 0.24 | relative viability ([16]; first compound 0.253 µM): 0.227 | relative viability ([16]; first compound 0.8 µM): 0.228 | relative viability ([16]; first compound 2.53 µM): 0.251 | relative viability ([16]; first compound 8 µM): 0.286 | relative viability ([17]; first compound 0.08 µM): 0.322 | relative viability ([17]; first compound 0.253 µM): 0.305 | relative viability ([17]; first compound 0.8 µM): 0.406 | relative viability ([17]; first compound 2.53 µM): 0.396 | relative viability ([17]; first compound 8 µM): 0.352 | relative viability ([18]; first compound 0.08 µM): 0.222 | relative viability ([18]; first compound 0.253 µM): 0.3 | relative viability ([18]; first compound 0.8 µM): 0.198 | relative viability ([18]; first compound 2.53 µM): 0.213 | relative viability ([18]; first compound 8 µM): 0.221 | relative viability ([19]; first compound 0.08 µM): 0.284 | relative viability ([19]; first compound 0.253 µM): 0.252 | relative viability ([19]; first compound 0.8 µM): 0.285 | relative viability ([19]; first compound 2.53 µM): 0.271 | relative viability ([19]; first compound 8 µM): 0.27 | relative viability ([20]; first compound 0.08 µM): 0.823 | relative viability ([20]; first compound 0.253 µM): 1.04 | relative viability ([20]; first compound 0.8 µM): 0.82 | relative viability ([20]; first compound 2.53 µM): 0.791 | relative viability ([20]; first compound 8 µM): 0.935 | relative viability ([21]; first compound 0.08 µM): 1.11 | relative viability ([21]; first compound 0.253 µM): 1.15 | relative viability ([21]; first compound 0.8 µM): 0.898 | relative viability ([21]; first compound 2.53 µM): 0.995 | relative viability ([21]; first compound 8 µM): 1.06 | relative viability ([22]; first compound 0.08 µM): 0.23 | relative viability ([22]; first compound 0.253 µM): 0.253 | relative viability ([22]; first compound 0.8 µM): 0.207 | relative viability ([22]; first compound 2.53 µM): 0.204 | relative viability ([22]; first compound 8 µM): 0.228
